# pIC50: −log10 of the molar value.
# Target: telomerase enzyme (Homo sapiens, UniProt O14746)
# Assay: Flash Plate-based telomerase assay
# Assay type: biochemical
# Conditions: two hours of incubation at 37°; only indicative, obtained during screening by fitting a limited number of experimental points
# Excerpt: The telomerase activity of the compounds of the invention has been evaluated using a Flash Plate-based assay. […] Other methods for determining the inhibitory concentration of a compound of the invention against telomerase can be employed as will be apparent to a person skilled in the art based on the disclosure herein.
# Briefly, the assay mixture is costituted by:
# telomerase enzyme diluted in a buffer, the composition of which has been selected to maintain the enzyme activity stable along the duration of the assay.
# dNTPs, deoxynucleotides 5′-triphosphate.
# biotynilated oligo as primer.
# increasing concentrations of test compounds/positive control.
# After two hours of incubation at 37° degrees the telomeric repeats added are evaluated by hybridization in solution with a 3′-labeled short oligonucleotide probe. The extent of hybridization is then quantitated by transferring the reaction mixture in a streptavidin-coated flash plate, where the binding between biotin and streptavidin occurs. The telomerase activity is proportional to the radioactivity measured and the inhibitory activity of the compounds is evaluated as IC50 using the Sigma Plot fit program. With the above-described method, IC50 values of the compounds of the present invention were determined. The data reported in Table 1 are only indicative since obtained during the screening by fitting a limited number of experimental points.
# telomerase enzyme, sequence (O14746 whole entry): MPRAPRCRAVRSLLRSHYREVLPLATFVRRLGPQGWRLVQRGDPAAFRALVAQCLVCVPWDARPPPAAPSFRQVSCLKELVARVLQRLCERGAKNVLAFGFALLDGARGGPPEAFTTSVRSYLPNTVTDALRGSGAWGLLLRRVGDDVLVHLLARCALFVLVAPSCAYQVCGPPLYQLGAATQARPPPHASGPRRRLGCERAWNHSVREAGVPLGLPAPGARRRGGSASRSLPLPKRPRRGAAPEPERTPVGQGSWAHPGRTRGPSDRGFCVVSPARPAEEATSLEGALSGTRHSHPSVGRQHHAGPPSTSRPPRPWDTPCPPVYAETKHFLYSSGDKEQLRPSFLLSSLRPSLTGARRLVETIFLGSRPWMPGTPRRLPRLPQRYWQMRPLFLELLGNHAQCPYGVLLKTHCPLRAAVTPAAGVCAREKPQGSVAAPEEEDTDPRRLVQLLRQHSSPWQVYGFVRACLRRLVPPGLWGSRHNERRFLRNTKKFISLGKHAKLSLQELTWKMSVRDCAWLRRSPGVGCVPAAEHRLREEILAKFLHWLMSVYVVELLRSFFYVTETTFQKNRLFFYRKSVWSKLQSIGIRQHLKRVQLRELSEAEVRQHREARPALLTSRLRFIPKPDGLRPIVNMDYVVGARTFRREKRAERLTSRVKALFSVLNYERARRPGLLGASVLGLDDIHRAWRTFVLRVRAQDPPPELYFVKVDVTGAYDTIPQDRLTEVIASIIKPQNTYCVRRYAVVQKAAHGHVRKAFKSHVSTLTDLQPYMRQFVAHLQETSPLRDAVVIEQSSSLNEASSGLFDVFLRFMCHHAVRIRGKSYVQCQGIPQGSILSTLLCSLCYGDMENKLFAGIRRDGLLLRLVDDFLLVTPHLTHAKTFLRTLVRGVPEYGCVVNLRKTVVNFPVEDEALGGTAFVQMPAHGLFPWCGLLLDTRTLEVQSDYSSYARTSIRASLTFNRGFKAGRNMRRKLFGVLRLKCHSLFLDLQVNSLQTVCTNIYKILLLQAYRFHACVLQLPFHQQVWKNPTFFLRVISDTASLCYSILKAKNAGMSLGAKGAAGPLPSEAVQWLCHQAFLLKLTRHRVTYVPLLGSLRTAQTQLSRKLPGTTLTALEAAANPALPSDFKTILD
row,Structure (SMILES),pIC50
1,"Nc1nc(=O)c2c(ncn2Cc2ccc(-c3ccccc3)cc2)n1Cc1ccc(-c2ccccc2)cc1 [Compound 2, 2-amino-3,7-bis-[(1,1′-biphenyl)-4-ylmethyl]-3,7-dihydro-6H-purin-6-one]",5.52
2,"Nc1nc(=O)c2c(ncn2Cc2ccc(-c3ccc(CCl)cc3)cc2)n1Cc1ccc(-c2ccc(CCl)cc2)cc1 [Compound 3, 2-amino-3,7-bis{[4′-(chloromethyl)[1,1′-biphenyl]-4-yl]methyl}-3,7-dihydro-6H-purin-6-one]",5.30
3,"COC(=O)c1cccc(Cn2c(N)nc(=O)c3c2ncn3Cc2ccc3ccccc3c2)c1 [Compound 29, Methyl 3-{[2-amino-7-(2-naphthylmethyl)-6-oxo-6,7-dihydro-3H-purin-3-yl]methyl}benzoate]",4.68
4,"Nc1nc(=O)c2c(ncn2Cc2ccc3ccccc3c2)n1Cc1ccc(-c2ccccc2)cc1 [Compound 5, 2-amino-3-([1,1-biphenyl]-4-ylmethyl)-7-(2-naphthylmethyl)-3,7-dihydro-6H-purin-6-one]",5.70
5,"Nc1nc(=O)c2c(ncn2Cc2ccc(-c3ccccc3)cc2)n1Cc1ccc2ccccc2c1 [Compound 6, 2-amino-3-(2-naphthylmethyl)-7-([1,1′-biphenyl]-4-ylmethyl)-3,7-dihydro-6H-purin-6-one]",5.70
6,"Nc1nc(=O)c2c(ncn2Cc2ccc(Cl)c(Cl)c2)n1Cc1ccc(Cl)c(Cl)c1 [Compound 4, 2-amino-3,7-bis(3,4-dichlorobenzyl)-3,7-dihydro-6H-purin-6-one]",5.40
7,"Nc1nc(=O)c2c(ncn2Cc2ccc3ccccc3c2)n1Cc1ccc2ccccc2c1 [Compound 1, 2-amino-3,7-bis(2-naphthylmethyl)-3,7-dihydro-6H-purin-6-one]",5.40
8,"Nc1nc(=O)c2c(ncn2Cc2ccc3ccccc3c2)n1Cc1ccc(Cl)c(Cl)c1 [Compound 7, 2-amino-3 (3,4-dichlorobenzyl)-7-(2-naphthylmethyl)-3,7-dihydro-6H-purin-6-one]",5.52
9,"Nc1nc(=O)c2c(ncn2Cc2ccc3ccccc3c2)n1Cc1cccc(Oc2ccccc2)c1 [Compound 8, 2-amino-3-(3-phenoxybenzyl)-7-(2-naphthylmethyl)-3,7-dihydro-6H-purin-6-one]",5.52
10,"Nc1nc(=O)c2c(ncn2Cc2ccc3ccccc3c2)n1Cc1ccc2c(c1)C(=O)c1ccccc1C2=O [Compound 19, 2-{[2-amino-7-(2-naphthylmethyl)-6-oxo-6,7-dihydro-3H-purin-3-yl]methyl}anthra-9,10-quinone]",5.40
11,"Nc1nc(=O)c2c(ncn2Cc2ccc3ccccc3c2)n1Cc1ccc(-c2nnn[nH]2)cc1 [Compound 27, 2-amino-7-(2-naphthylmethyl)-3-[4-(1H-tetraazol-5-yl)benzyl]-3,7-dihydro-6H-purin-6-one]",4.72
